Experimental data published in PubChem BioAssay AID192 (DTP/NCI, 2004).
Where “and” joins values, the source holds several entries; their conditions need not be identical. Equal values may be shown once. Toxic doses and inconclusive results are not listed. How the source made its calls: active means survival T/C of 150% or more; inactive means T/C below 125% in these data.

Test system: BDF1 mice, B16 melanoma ip, median survival T/C
Assay: NCI In Vivo Anticancer Drug Screen. Data for tumor model B16 Melanoma (intraperitoneal) in B6D2F1 (BDF1) mice
Conditions: endpoint: median survival time, schedule: Q01DX009 (ip), higher = longer survival
In short: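 Tumor-bearing mice received test compound or vehicle. Survival or tumor size was then measured in both groups. The treated-group figure was divided by the control-group figure.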

[1] = dose: 50.0 mg/kg/injection, vehicle: Klucel (hydroxypropylcellulose) (HPC)
[2] = dose: 100.0 mg/kg/injection, vehicle: Klucel (hydroxypropylcellulose) (HPC)
[3] = dose: 25.0 mg/kg/injection, vehicle: saline with Tween-80
[4] = dose: 100.0 mg/kg/injection, vehicle: saline with Tween-80
[5] = dose: 12.5 mg/kg/injection, vehicle: saline with Tween-80
[6] = dose: 2.5 mg/kg/injection, vehicle: Klucel (hydroxypropylcellulose) (HPC)
[7] = dose: 5.0 mg/kg/injection, vehicle: Klucel (hydroxypropylcellulose) (HPC)
[8] = dose: 10.0 mg/kg/injection, vehicle: Klucel (hydroxypropylcellulose) (HPC)
[9] = dose: 200.0 mg/kg/injection, vehicle: saline with Tween-80
[10] = dose: 400.0 mg/kg/injection, vehicle: saline with Tween-80

Measured: T/C

N#CC(Nc1ccccc1)c1ccccc1 (stereo not given)
inactive: [1] 100 % of control | [2] 94 % of control

CS(=O)(=O)c1cc(=O)[nH]c(=O)[nH]1
inactive: [3] 95 % of control | [4] 92 % of control

Cc1ccc2c(ccc(/C=C/c3ccc(O)c4ncccc34)[n+]2C)c1
inactive: [5] 113 % of control | [3] 103 % of control

O=C(O)c1cc2ccccc2o1
inactive: dose: 16.5 mg/kg/injection, vehicle: saline with Tween-80 100 % of control | [3] 100 % of control | dose: 37.5 mg/kg/injection, vehicle: saline with Tween-80 92 % of control | dose: 50.0 mg/kg/injection, vehicle: saline with Tween-80 111 % of control | [4] 102 % of control

COC1=C(N=[N+]=[N-])C(=O)C(OC)=C(N=[N+]=[N-])C1=O
inactive: dose: 12.5 mg/kg/injection, vehicle: Klucel (hydroxypropylcellulose) (HPC) 111 % of control | dose: 25.0 mg/kg/injection, vehicle: Klucel (hydroxypropylcellulose) (HPC) 95 % of control | [1] 94 % of control | [2] 91 % of control

c1cc2c(c(NC3=NCCCS3)c1)CCCC2
inactive: [1] 106 % of control | [2] 96 % of control | dose: 200.0 mg/kg/injection, vehicle: Klucel (hydroxypropylcellulose) (HPC) 96 % of control

Cn1ncc2c(N)ncnc21
inactive: dose: 1.25 mg/kg/injection, vehicle: Klucel (hydroxypropylcellulose) (HPC) 102 % of control | [6] 111 % of control | [7] 105 % of control | [8] 119 % of control

CCCCCCCCCCCCCC[n+]1ccccc1
inactive: dose: 0.06 mg/kg/injection, vehicle: saline with Tween-80 86 % of control and 89 % of control | dose: 0.13 mg/kg/injection, vehicle: saline with Tween-80 90 % of control | dose: 0.25 mg/kg/injection, vehicle: saline with Tween-80 86 % of control | dose: 8.0 micrograms/kg/injection, vehicle: saline 88 % of control | dose: 15.0 micrograms/kg/injection, vehicle: saline 91 % of control | dose: 30.0 micrograms/kg/injection, vehicle: saline 94 % of control | dose: 60.0 micrograms/kg/injection, vehicle: saline 88 % of control

CCN(CC)C(=S)SC(=S)N(CC)CC
inactive: [4] 96 % of control | [9] 103 % of control | [10] 93 % of control

C=C1COC(O)(C2OCOC(C3CC(=O)NC(=O)C3)C2O)C1C (stereo not given)
inactive: dose: 2.0 micrograms/kg/injection, vehicle: water 104 % of control | dose: 4.0 micrograms/kg/injection, vehicle: water 104 % of control | dose: 8.0 micrograms/kg/injection, vehicle: water 100 % of control | dose: 16.0 micrograms/kg/injection, vehicle: water 108 % of control | dose: 32.0 micrograms/kg/injection, vehicle: water 103 % of control

CCCCCCCCSCCO
inactive: [5] 102 % of control | [3] 97 % of control

CCN(CC)C(C(=O)Nc1ccccc1)C(=O)Nc1ccccc1
inactive: [4] 100 % of control | [9] 90 % of control | [10] 95 % of control

COC(=O)C1Oc2ccc(Cl)cc2Cc2cc(Cl)ccc2O1
inactive: [6] 91 % of control | [7] 99 % of control | [8] 93 % of control and 99 % of control
